The results in this text go back to ChEMBL document CHEMBL1147761, “Novel 1,3-dipropyl-8-(1-heteroarylmethyl-1H-pyrazol-4-yl)-xanthine derivatives as high affinity and selective A2B adenosine receptor antagonists” (Bioorg Med Chem Lett, 2006).

One experiment has as its target T1, Adenosine receptor A2b (Homo sapiens, UniProt P29275).
T1 sequence (P29275 whole entry): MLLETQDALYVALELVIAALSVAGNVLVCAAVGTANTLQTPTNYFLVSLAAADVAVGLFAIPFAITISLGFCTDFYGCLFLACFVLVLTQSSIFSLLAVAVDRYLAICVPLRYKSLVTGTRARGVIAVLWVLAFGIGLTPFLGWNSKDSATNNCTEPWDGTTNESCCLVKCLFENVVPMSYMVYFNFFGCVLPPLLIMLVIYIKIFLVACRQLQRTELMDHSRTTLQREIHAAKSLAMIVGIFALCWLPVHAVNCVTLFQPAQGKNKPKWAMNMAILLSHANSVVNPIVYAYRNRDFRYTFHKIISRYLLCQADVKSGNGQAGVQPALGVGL
The experiment in a line: Displacement of [3H]ZM-241385 from Adenosine A2B receptor expressed in HEK cells. Format: cell-based, HEK293. (In general: Displacement assays read how much labelled ligand stays bound in the presence of the test substance.)

The target of another experiment is T2, Adenosine receptor A3 (Homo sapiens, UniProt P0DMS8).
T2 sequence (P0DMS8 whole entry): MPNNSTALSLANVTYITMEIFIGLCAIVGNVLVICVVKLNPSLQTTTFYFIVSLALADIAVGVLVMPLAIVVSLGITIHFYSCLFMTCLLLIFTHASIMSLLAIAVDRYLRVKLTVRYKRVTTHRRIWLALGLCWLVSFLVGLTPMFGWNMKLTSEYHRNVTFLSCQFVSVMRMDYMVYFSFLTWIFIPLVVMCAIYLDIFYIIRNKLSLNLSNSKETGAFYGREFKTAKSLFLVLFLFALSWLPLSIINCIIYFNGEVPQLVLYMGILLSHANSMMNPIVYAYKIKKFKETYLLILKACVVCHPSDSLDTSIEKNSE
In words: Displacement of [125I]AB-MECA from Adenosine A3 receptor expressed in CHO cells. Format: cell-based.

Another experiment concerns the target T3, Adenosine receptor A1 (Homo sapiens, UniProt P30542).
T3 sequence (P30542 whole entry): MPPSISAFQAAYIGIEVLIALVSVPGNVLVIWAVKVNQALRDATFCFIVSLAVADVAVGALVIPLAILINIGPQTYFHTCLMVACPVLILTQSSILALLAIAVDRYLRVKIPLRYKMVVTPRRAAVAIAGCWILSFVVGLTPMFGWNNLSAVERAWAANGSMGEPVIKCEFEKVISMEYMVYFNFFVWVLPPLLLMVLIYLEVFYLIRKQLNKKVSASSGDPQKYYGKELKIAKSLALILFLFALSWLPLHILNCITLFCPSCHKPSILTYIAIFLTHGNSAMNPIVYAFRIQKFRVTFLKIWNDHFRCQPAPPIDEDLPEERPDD
In words: Displacement of [3H]CPX from Adenosine A1 receptor expressed in CHO cells. Format: cell-based.

The target in another experiment is Adenosine receptor A2a (Homo sapiens, UniProt P29274). In words: Displacement of [3H]ZM-241385 from Adenosine A2A receptor expressed in HEK cells. Format: cell-based, HEK293.
Adenosine receptor A2a, sequence (P29274 whole entry): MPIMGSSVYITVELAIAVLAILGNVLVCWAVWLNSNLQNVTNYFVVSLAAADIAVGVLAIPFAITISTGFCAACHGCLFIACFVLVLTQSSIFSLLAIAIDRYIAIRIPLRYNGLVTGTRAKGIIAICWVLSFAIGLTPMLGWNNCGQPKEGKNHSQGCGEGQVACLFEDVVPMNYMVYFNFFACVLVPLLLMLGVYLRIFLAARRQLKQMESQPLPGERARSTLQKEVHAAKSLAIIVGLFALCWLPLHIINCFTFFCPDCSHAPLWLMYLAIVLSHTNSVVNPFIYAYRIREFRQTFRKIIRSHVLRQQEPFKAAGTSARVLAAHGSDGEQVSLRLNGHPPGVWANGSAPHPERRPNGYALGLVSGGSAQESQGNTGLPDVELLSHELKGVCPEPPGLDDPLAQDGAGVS
Experiment [1] deals with Adenosine receptors; A1 & A2b (Homo sapiens) (UniProt P30542+P29275). In words: Selectivity of adenosine A1 receptor over adenosine A2B receptor. Format: protein assay.
The target in experiment [2] is Adenosine receptors; A2b & A3 (Homo sapiens) (UniProt P29275+P0DMS8). The experiment in a line: Selectivity of adenosine A3 receptor over adenosine A2B receptor. Format: protein assay.
In experiment [3] the target is Adenosine A2 receptor (Homo sapiens) (UniProt P29275+P29274). The experiment in a line: Selectivity of adenosine A2A receptor over adenosine A2B receptor. Format: protein assay.
Adenosine A2 receptor (Homo sapiens), sequence (P29274 whole entry, looked up, one chain of several): as the sequence (P29274 whole entry) above

`CCCn1c(=O)c2[nH]c(-c3cnn(Cc4noc(-c5cccc(C(F)(F)F)c5)n4)c3)nc2n(CCC)c1=O`: the Ki is 64 nM on Adenosine receptor A2b, 1800 nM on Adenosine receptor A3, greater than 6000 nM at Adenosine receptor A1 and greater than 5000 nM at Adenosine receptor A2a.
As to `CCCn1c(=O)c2nc(-c3cnn(CC(=O)Nc4ccccc4Cl)c3)[nH]c2n(CCC)c1=O`, the Ratio Ki in experiment [1] amounted to 5; in experiment [2], 54; in experiment [3], 68.
For `CCCn1c(=O)c2nc(-c3cnn(Cc4nc(-c5ccc(C)cc5)no4)c3)[nH]c2n(CCC)c1=O`, in that order: 48, 160 and 55.
For `CCCn1c(=O)c2nc(-c3cnn(Cc4noc(-c5ccccc5C(F)(F)F)n4)c3)[nH]c2n(CCC)c1=O` the same measures were 19, 6 and greater than 50.
For `CCCn1c(=O)c2nc(-c3cnn(Cc4nc(-c5cccc(OC)c5)no4)c3)[nH]c2n(CCC)c1=O`, in that order: 26, 7 and greater than 60.
Consider `CCCn1c(=O)c2[nH]c(-c3cnn(Cc4nc(-c5cccc(OC)c5)no4)c3)nc2n(CCC)c1=O`, for which the inhibitory constant (Ki) was 82 nM on Adenosine receptor A2b, 600 nM at Adenosine receptor A3, 2200 nM on Adenosine receptor A1 and greater than 5000 nM on Adenosine receptor A2a.
With `CCCn1c(=O)c2nc(-c3cnn(Cc4cc(-c5ccc(Cl)cc5)on4)c3)[nH]c2n(CCC)c1=O`, the results for the Ratio Ki in experiment [1], in experiment [2] and in experiment [3] were 6, 40 and 14, respectively.
For `CCCn1c(=O)c2nc(-c3cnn(Cc4nc(-c5ccccc5OC)no4)c3)[nH]c2n(CCC)c1=O` the same measures were 23, 5 and 19.
Turning to `CCCn1c(=O)c2[nH]c(-c3cnn(Cc4noc(-c5ccc(C#N)cc5)n4)c3)nc2n(CCC)c1=O`, the inhibition constant (Ki) at Adenosine receptor A2b is 14 nM; on Adenosine receptor A3, 640 nM; on Adenosine receptor A1 it was 570 nM; at Adenosine receptor A2a, greater than 5000 nM.
As to `CCCn1c(=O)c2nc(-c3cnn(Cc4noc(-c5cccc(C(F)(F)F)c5)n4)c3)[nH]c2n(CCC)c1=O`, the results for the Ratio Ki in experiment [1], in experiment [2] and in experiment [3] were greater than 93, 27 and greater than 78, respectively.
Regarding `CCCn1c(=O)c2[nH]c(-c3cnn(CC(=O)Nc4ccccc4Cl)c3)nc2n(CCC)c1=O`, the Ki at Adenosine receptor A2b came out at 22 nM; on Adenosine receptor A3, 1200 nM; on Adenosine receptor A1, 102 nM; at Adenosine receptor A2a, 1500 nM.
For `CCCn1c(=O)c2[nH]c(-c3cnn(Cc4noc(-c5ccccc5Cl)n4)c3)nc2n(CCC)c1=O`, in that order: 38 nM, 330 nM, 630 nM and 2500 nM.
`CCCn1c(=O)c2nc(-c3cnn(Cc4cc(-c5ccccc5OC)on4)c3)[nH]c2n(CCC)c1=O`: the Ratio Ki in experiment [1] was 16; in experiment [2] it was 24; in experiment [3], greater than 25.
For `CCCn1c(=O)c2nc(-c3cnn(Cc4cc(-c5ccc(OC)cc5)on4)c3)[nH]c2n(CCC)c1=O`, the Ratio Ki was 31 in experiment [1], 48 in experiment [2] and greater than 79 in experiment [3].
As for `CCCn1c(=O)c2nc(-c3cnn(Cc4noc(-c5ccc(C#N)cc5)n4)c3)[nH]c2n(CCC)c1=O`, the Ratio Ki in experiment [1] was 40; in experiment [2] it was 45; in experiment [3], greater than 357.
In the case of `CCCn1c(=O)c2[nH]c(-c3cnn(Cc4cc(-c5ccccc5Cl)on4)c3)nc2n(CCC)c1=O`, the Ki on Adenosine receptor A2b was 111 nM; at Adenosine receptor A3 it was 2300 nM; at Adenosine receptor A1, greater than 6000 nM; at Adenosine receptor A2a, 2700 nM.
For `CCCn1c(=O)c2[nH]c(-c3cnn(Cc4noc(-c5cccc(OC)c5)n4)c3)nc2n(CCC)c1=O` the same measures were 136 nM, 2000 nM, 810 nM and greater than 5000 nM.
On to `CCCn1c(=O)c2nc(-c3cnn(Cc4nc(-c5cccc(C)c5)no4)c3)[nH]c2n(CCC)c1=O`, for which the Ratio Ki in experiment [1] is 11; in experiment [2] it was 8; in experiment [3] it was greater than 39.
For `CCCn1c(=O)c2[nH]c(-c3cnn(Cc4nc(-c5cccc(C)c5)no4)c3)nc2n(CCC)c1=O`, the Ki on Adenosine receptor A2b was 128 nM; on Adenosine receptor A3, 970 nM; on Adenosine receptor A1, 1400 nM; at Adenosine receptor A2a, greater than 5000 nM.
For `CCCn1c(=O)c2nc(-c3cnn(Cc4cc(-c5ccccc5Cl)on4)c3)[nH]c2n(CCC)c1=O`, the results for the Ratio Ki in experiment [1], in experiment [2] and in experiment [3] were greater than 54, 20 and 24, respectively.
`CCCn1c(=O)c2[nH]c(-c3cnn(Cc4nc(-c5ccc(C)cc5)no4)c3)nc2n(CCC)c1=O`: the inhibition constant (Ki) on Adenosine receptor A2b came to 54 nM; at Adenosine receptor A3 it was 8700 nM; on Adenosine receptor A1 it was 2600 nM; at Adenosine receptor A2a it was 3000 nM.
On to `CCCn1c(=O)c2[nH]c(-c3cnn(Cc4nc(-c5cccc(Cl)c5)no4)c3)nc2n(CCC)c1=O`, for which the Ki on Adenosine receptor A2b is 32 nM; on Adenosine receptor A3, 490 nM; at Adenosine receptor A1, 652 nM; at Adenosine receptor A2a, greater than 5000 nM.
Consider `CCCn1c(=O)c2nc(-c3cnn(Cc4cc(-c5ccc(C(F)(F)F)cc5)on4)c3)[nH]c2n(CCC)c1=O`, for which the Ratio Ki in experiment [1] came to 48; in experiment [2] it was 25; in experiment [3], 35.
As to `CCCn1c(=O)c2[nH]c(-c3cnn(Cc4nc(-c5ccccc5OC)no4)c3)nc2n(CCC)c1=O`, the Ki came to 82 nM on Adenosine receptor A2b, 410 nM at Adenosine receptor A3, 1900 nM on Adenosine receptor A1 and 1600 nM at Adenosine receptor A2a.
For `CCCn1c(=O)c2[nH]c(-c3cnn(Cc4cc(-c5ccc(C(F)(F)F)cc5)on4)c3)nc2n(CCC)c1=O`, in that order: 48 nM, 1200 nM, 2300 nM and 1700 nM.
In the case of `CCCn1c(=O)c2nc(-c3cnn(Cc4noc(-c5cccc(OC)c5)n4)c3)[nH]c2n(CCC)c1=O`, the Ratio Ki in experiment [1] was 6; in experiment [2], 15; in experiment [3] it was greater than 37.
With `CCCn1c(=O)c2[nH]c(-c3cnn(Cc4nc(-c5ccc(C(F)(F)F)cc5)no4)c3)nc2n(CCC)c1=O`, the Ki was 55 nM at Adenosine receptor A2b, 1300 nM on Adenosine receptor A3, 3300 nM at Adenosine receptor A1 and greater than 5000 nM at Adenosine receptor A2a.
For `CCCn1c(=O)c2[nH]c(-c3cnn(Cc4noc(-c5ccccc5C(F)(F)F)n4)c3)nc2n(CCC)c1=O`, in that order: 100 nM, 620 nM, 1900 nM and greater than 5000 nM.
In the case of `CCCn1c(=O)c2[nH]c(-c3cnn(Cc4cc(-c5ccc(Cl)cc5)on4)c3)nc2n(CCC)c1=O`, the Ki on Adenosine receptor A2b is 82 nM; on Adenosine receptor A3, 3300 nM; on Adenosine receptor A1, 540 nM; at Adenosine receptor A2a, 1200 nM.
For `CCCn1c(=O)c2nc(-c3cnn(Cc4nc(-c5ccc(C#N)cc5)no4)c3)[nH]c2n(CCC)c1=O`, the Ratio Ki was 70 in experiment [1], 53 in experiment [2] and greater than 277 in experiment [3].
For `CCCn1c(=O)c2nc(-c3cnn(Cc4noc(-c5ccccc5Cl)n4)c3)[nH]c2n(CCC)c1=O`, in that order: 16, 9 and 65.
Regarding `CCCn1c(=O)c2[nH]c(-c3cnn(Cc4cc(-c5ccccc5OC)on4)c3)nc2n(CCC)c1=O`, the Ki is 195 nM on Adenosine receptor A2b, 4900 nM at Adenosine receptor A3, 3300 nM at Adenosine receptor A1 and greater than 5000 nM at Adenosine receptor A2a.
Regarding `CCCn1c(=O)c2nc(-c3cnn(Cc4nc(-c5cccc(Cl)c5)no4)c3)[nH]c2n(CCC)c1=O`, the Ratio Ki in experiment [1] was 20; in experiment [2], 15; in experiment [3], greater than 156.
Turning to `CCCn1c(=O)c2[nH]c(-c3cnn(Cc4nc(-c5ccc(C#N)cc5)no4)c3)nc2n(CCC)c1=O`, the Ki at Adenosine receptor A2b was 18 nM; at Adenosine receptor A3, 950 nM; at Adenosine receptor A1, 1300 nM; at Adenosine receptor A2a, greater than 5000 nM.
For the molecule `CCCn1c(=O)c2nc(-c3cnn(Cc4nc(-c5ccc(C(F)(F)F)cc5)no4)c3)[nH]c2n(CCC)c1=O`, the values for the Ratio Ki in experiment [1], in experiment [2] and in experiment [3] were 60, 23 and greater than 90, respectively.

As a reminder, the Ki is a measure of affinity in units of concentration, obtained from inhibition or displacement.
